Data from US20040097566A1, “2-Substituted thiazolidinone and oxazolidinone derivatives for the inhibition of phosphatases and the treatment of cancer” (priority 2001, published 2004).
“Also recorded” adds a separate entry of the source.

Legend:
[1] = biological target: T1, recombinant human enzyme Cdc25A (Homo sapiens, UniProt P30304); assay: Cdc25A phosphatase assay (OMFP substrate), inhibition of Cdc25A; type: biochemical; conditions: FIG. 1; inhibition calculated as a percentage of the solvent control
T1 construct: purchased Upstate Biotechnology (Lake Placid, N.Y.)
T1 sequence (P30304 1-524): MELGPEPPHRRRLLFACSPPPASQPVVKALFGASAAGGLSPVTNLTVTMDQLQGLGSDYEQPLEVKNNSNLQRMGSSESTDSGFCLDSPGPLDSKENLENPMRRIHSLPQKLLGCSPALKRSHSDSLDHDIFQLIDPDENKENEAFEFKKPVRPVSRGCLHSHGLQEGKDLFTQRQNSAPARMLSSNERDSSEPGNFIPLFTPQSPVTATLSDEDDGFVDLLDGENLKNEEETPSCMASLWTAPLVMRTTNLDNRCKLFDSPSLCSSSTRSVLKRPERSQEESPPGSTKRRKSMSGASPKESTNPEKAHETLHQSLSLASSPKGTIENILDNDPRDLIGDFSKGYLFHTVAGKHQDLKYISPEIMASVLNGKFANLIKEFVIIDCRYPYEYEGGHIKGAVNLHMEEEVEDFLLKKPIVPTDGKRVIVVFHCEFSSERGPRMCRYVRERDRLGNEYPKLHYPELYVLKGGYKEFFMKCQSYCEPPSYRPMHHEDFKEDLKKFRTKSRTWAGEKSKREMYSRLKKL
Experimental: Therefore, one method of […] screening of the compounds for anti-cancer activity is to test the activity of a particular compound for the ability to inhibit Cdc 25-type phosphatases. The results of one such test are shown in Example 161 below, and FIG. 1.
The phosphatase assay was performed in a 96-well microtiter plate using recombinant human enzyme Cdc25A purchased from Upstate Biotechnology (Lake Placid, N.Y.). Stock solutions of the test compounds were prepared in DMSO. Five μl of suitable dilutions of the compounds were added to the assay. The final volume of the assay was 100 μl. Twenty units of Cdc25A were pre-incubated with the test compounds at 37° C. for 10 min in the reaction mixture containing 100 mM Tris-HCl, pH 8.2, 40 mM NaCl, 1 mM DTT and 20% glycerol. The reaction was initiated by addition of the enzyme substrate […] (OMFP; Sigma, St. Louis, Mo.) at a final concentration of 40 μM and incubated at room temperature for 1 hour. This substrate allows fluorometric determination of enzyme activity. OMFP is readily metabolized to the fluorescent O-methylfluorescein by the enzyme Cdc25A, thus the absorbance of each reaction sample was determined at 477 nm using a plate reader (SpectraMax 340, Molecular Devices, Sunnyvale, Calif.). […] Inhibition of Cdc25A activity by test compounds was calculated as a percentage of the solvent control.

[2] = test system: breast cancer cell line MDA-MB468; assay: MTT assay, human breast cancer cells; type: cell-based; conditions: concentrations in the range of 10^−7-10^−5 M or higher, FIGS. 2, 17
Text: (§1) The anti-cancer activity of some of the compounds described herein have been tested in one type of such in vitro assay, as described in the examples herein, using a microculture assay with 3-(4,5-dimethylthiazol-2-yl)-2,5-diphenyltetrazolium bromide (“MTT”). This assay has an advantage over in vivo assay in that results are obtained within a week as opposed to several months. The assay can be carried out in 96-well microtiter plates. The MTT assay is based on the production of a dark blue formazan product by dehydrogenase in the mitochondria of live tumor cells after exposure to drug for 6 days [M. C. Alley, D. A. Scudiero, A. Monks, M. L. Hursey, M. J. Czerwinski, D. L. Fine, B. J. Abbout, J. G. Mayo, R. H. Shoemaker and M. R. Boyd, Cancer Res., 48, 589, 1988]. Thus, only live cells are stained and can be measured at 595 nm. Anti-cancer activity can be reported as percent of the tumor cell growth in the presence of compound at a defined dose compared to control/vehicle treated tumor cells. The results of some such screening assays are given in Examples 162a and 162b, and in FIGS. 2, 3, and 15-18.
(§2) The following human cancer cell lines were used to detect anti-cancer activity in the compounds of the invention.
The breast cancer cell line MDA-MB468 served to detect anti-breast cancer activity.
(§3) Cell lines were purchased from American Type Culture Collection (ATCC).
(§4) The cancer cell cultures were grown as recommended by the ATTC manuals. A549 cells and BX-PC-3 were grown in DME Dulbecco's modified Eagle's medium containing 4500 mg/L glucose; 4 mM L-glutamine; 10 U/ml Pen-G; 10 mcg/ml […] and 10% fetal calf serum (FCS). PC-3 and MDA-MB468 cells were grown in RPMI medium 1640 containing 2 mM L-glutamine; 10 U/ml Pen-G; 10 mcg/ml Streptomycin and 10% FCS. Cells were kept at 6% CO2 and 37° C. Cells were seeded on day zero in 96-well format tissue culture plates at suitable densities the day before starting treatment, in the media indicated above.
(§5) On day one, the compounds of the invention were added to the culture media of growing cells, containing 10% FCS. The cell media contained the compounds of the invention at one of six concentrations: […], 5×10^−8, 1×10^−7, 5×10^−7, 1×10^−6, and 1×10^−5M. 0.1% DMSO was used as vehicle control, and never exceeded 0.1% final concentration. On day four the media was removed and replaced with fresh media containing the compounds of the invention and FCS.
(§6) The assay is based on the cleavage of the yellow tetrazolium salt MTT to purple formazan crystals by dehydrogenase activity in active mitochondria. This conversion only occurs in living cells with intact/functional mitochondria.
(§7) On day five 10 μl of 5 mg/ml MTT dye are added to each well containing a cell culture. Cells are incubated for additional 4 hours at 6% CO2 and 37° C. Reaction is then stopped by adding 100 μl/well of a solubilization solution consisting of 10% Sodium Dodecyl Sulfate (SDS) and 10 mM HCl On day 6 the formazan crystals formed are solubilized and the resulting colored solution is quantified using a scanning multiwell spectrophotometer at a wavelength of 595 nm.

[3] = test system: pancreatic cancer cell line BX-PC-3; assay: MTT assay, human pancreatic cancer cells; type: cell-based; conditions: concentrations in the range of 10^−7-10^−5 M or higher, FIGS. 3, 18
Text: as §1, §2
The pancreatic cancer cell line BX-PC-3 was used to detect anti-pancreatic cancer activity.
as §3, §4, §5, §6, §7

[4] = test system: non-small-cell lung cancer cell line A549; assay: MTT assay, human non-small-cell lung cancer cells; type: cell-based; conditions: concentrations in the range of 10^−7-10^−5 M or higher, FIGS. 3, 15
Text: as §1, §2
The non-small-cell lung cancer cell line A549 was used to detect anti-lung cancer activity
as §3, §4, §5, §6, §7

[5] = test system: prostate cancer cell line PC-3; assay: MTT assay, human prostate cancer cells; type: cell-based; conditions: concentrations in the range of 10^−7-10^−5 M or higher, FIGS. 2, 16
Text: as §1, §2
The prostate cancer cell line PC-3 was used to detect […]
as §3, §4, §5, §6, §7

melting point: 311 to 312 °C
selective inhibition of Cdc25 as compared to the dual specificity phosphatase MKP-1 [1]: selective inhibition of Cdc25
SMILES: O=C1N=C(N2CCCCC2)S/C1=C\c1cccc(-c2ccc(O)c(C34CC5CC(CC(C5)C3)C4)c2)c1 [Compound 3, 5-[3-(3-Adamantan-1-yl-4-hydroxy-phenyl)benzylidene]-2-piperidin-1-yl-thiazol-4-one]
anticancer cell activity / killing of breast cancer cells [2]: kill significant percentages of the cells; also recorded: strong anticancer cell activity
anticancer cell activity / killing of pancreatic cancer cells [3]: kill significant percentages of the cells; also recorded: strong anticancer all activity
anticancer cell activity / killing of non-small-cell lung cancer cells [4]: kill significant percentages of the cells; also recorded: strong anticancer all activity
anticancer cell activity / killing of prostate cancer cells [5]: kill significant percentages of the cells; also recorded: strong anticancer cell activity
